Here are results for six molecules from patent US6432949B1, “Amide derivatives useful as inhibitors of the production of cytokines” (AstraZeneca AB, priority 1998, dated 2002).

As usually defined, the IC50 is the point on the concentration scale where inhibition reaches its midpoint.

The target in assay [1] is T1, p38α (Homo sapiens, UniProt Q16539).
T1 construct: c-myc (N); 6His (N); made in house; host or cells: E. coli (PET vectors)
Nature of the assay: In vitro enzyme assay, p38α isoform. The note with it: read-out: IC50 against p38α. Type of assay: biochemical. How it is done:
The ability of compounds of the invention to inhibit the enzyme p38 kinase was assessed. Activity of test compounds against each of the p38α and […] isoforms of the enzyme was determined.
Human recombinant MKK6 (GenBank Accesion Number G1209672) was isolated from Image clone 45578 (Genomics 1996, 33, 151) and utilised to produce protein in the form of a GST fusion protein in a pGEX vector using analogous procedures to those disclosed by J. Han et al., Journal of Biological Chemistry, 1996, 271, 2886-2891. p38α (GenBank Accession Number G529039) and p38β (GenBank Accession Number G1469305) were isolated by PCR amplification of human lymphoblastoid cDNA (GenBank Accession Number GM1416) and human foetal brain cDNA [synthesised from mRNA (Clontech, catalogue no. 6525-1) using a Gibco superscript cDNA synthesis kit] respectively using oligonucleotides designed for the 5′ and 3′ ends of the human p388α and p38β genes using analogous procedures to those described by J. Han et al., Biochimica et Biolphysica Acta, 1995, 1265, 224-227 and Y. Jiang et al., Journal of Biological Chemistry, 1996, 271, 17920-17926.
Both p38 protein isoforms were expressed in e coli in PET vectors. Human recombinant p38α and p38β isoforms were produced as 5′ c-myc, 6His tagged proteins. Both MKK6 and the p38 proteins were purified using standard protocols: the GST MKK6 was purified using a glutathione sepharose column and the p38 proteins were purified using nickel chelate columns.
The p38 enzymes were activated prior to use by incubation with MKK6 for 3 hours at 30° C. The unactivated coli-expressed MKK6 retained sufficient activity to fully activate both isoforns of p38. The activation incubate comprised p38α (10 μl of 10 mg/ml) or p38β (10 μl of 5 mg/ml) together with MKK6 (10 μl of 1 mg/ml), ‘Kinase buffer’ [100 μl; pH 7.4 buffer comprising Tris (50 mM), EGTA (0.1 mM), sodium orthovanadate (0.1 mM) and β-mercaptoethanol (0.1%)] and MgATP (30 μl of 50 mM Mg(OCOCH3)2 and 0.5 mM ATP). This produced enough activated p38 enzyme for 3 Microtiter plates.
Test compounds were solubilised in DMSO and 10 μl of a 1:10 diluted sample in ‘Kinase Buffer’ was added to a well in a Microtiter plate. For single dose testing, the compounds were tested at 10 μM. ‘Kinase Assay Mix’ [30 μl; comprising Myelin Basic Protein (Gibco BRL cat. no. 1322B-010; 1 ml of a 3.33 mg/ml solution in water), activated p38 enzyme (50 μl) and ‘Kinase Buffer’ (2 ml)] was then added followed by ‘Labelled ATP’ [10 μl; comprising 50 μM ATP, 0.1 μCi ^33P ATP (Amersham International cat. no. BF1000) and 50 mM Mg(OCOCH3)2]. The plates were incubated at room temperature with gentle agitation. Plates containing p38α were incubated for 90 min and plates containing p38β were incubated for 45 min. Incubation was stopped by the addition of 50 μl of 20% trichloroacetic acid (TCA). The precipitated protein was phosphorylated by p38 kinase and test compounds were assessed for their ability to inhibit this phosphorylation. The plates were filtered using a Canberra Packard Unifilter and washed with 2% TCA, dried overnight and counted on a Top Count scintillation counter.
Test compounds were tested initially at a single dose and active compounds were retested to allow IC50 values to be determined.

The test system of assay [2] is TNFα production. Nature of the assay: Human Whole Blood (HWB) test: TNFα production by LPS-stimulated human whole blood. Type of assay: cell-based. On the procedure: The ability of the compounds of this invention to inhibit TNFα production was also assessed in a human whole blood assay. Human whole blood secretes TNFα when stimulated with LPS. This property of blood forms the basis of an assay which is used as a secondary test for compounds which profile as active in the PBMC test.
Heparinised (10 units/ml) human blood was obtained from volunteers. 160 μl whole blood were added to 96 well round-bottom plates (Corning 25850). Compounds were solubilised and serially diluted in RPMI 1640 medium (Gibco) supplemented with 50 units/ml penicillin, 50 μg/ml streptomycin and 2 mM glutamine, as detailed above. 20 μl of each test concentration was added to appropriate wells (triplicate cultures). 20 μl of RPMI 1640 medium supplemented with antibiotics and glutamine was added to control wells. Plates were incubated for 30 minutes at 37° C. (humidified incubator), prior to addition of 2011 LPS (final concentration 10 μg/ml). RPMI 1640 medium was added to control wells. Six “LPS alone” and four “medium alone” controls were included on each plate. A known TNFα synthesis/secretion inhibitor was included in each test. Plates were incubated for 6 hours at 37° C. (humidified incubator). […] TNFα levels were measured by ELISA (see WO92/10190 and Current Protocols in Molecular Biology, vol 2 by Frederick M. Ausbel et al., John Wiley and Sons Inc.). […]

Assay [3] deals with TNFα production. Briefly: PBMC test: TNFα production by LPS-stimulated human peripheral blood mononuclear cells. Type of assay: cell-based. On the procedure:
The ability of compounds of this invention to inhibit TNFα production was assessed by using human peripheral blood mononuclear cells which synthesise and secrete TNFα when stimulated with lipopolysaccharide.
Peripheral blood mononuclear cells (PBMC) were isolated from heparinised (10 units/ml heparin) human blood by density centrifugation (Lymphoprep™; Nycomed). Mononuclear cells were resuspended in culture medium [RPMI 1640 medium (Gibco) supplemented with 50 units/ml penicillin, 50 μg/ml streptomycin, 2 mM glutamine and 1% heat-inactivated human AB serum (Sigma H-1 513)]. Compounds were solubilised in DMSO at a concentration of 50 mM, diluted 1:100 in culture medium and subsequently serial dilutions were made in culture medium containing 1% DMSO. PBMCs (2.4×10^5 cells in 160 μl culture medium) were incubated with 20 μl of varying concentrations of test compound (triplicate cultures) or 20 μl culture medium containing 1% DMSO (control wells) for 30 minutes at 37° C. in a humidified (5%CO2/95% air) incubator (Falcon 3072; 96 well flat-bottom tissue culture plates). 20 μl lipopolysaccharide [LPS E.Coli 0111:B4 (Sigma L4130), final concentration 10 μg/ml] solubilised in culture medium was added to appropriate wells. 20 μl culture medium was added to “medium alone” control wells. Six “LPS alone” and four “medium alone” controls were included on each 96 well plate. Varying concentrations of a known TNFα inhibitor were included in each test, i.e. an inhibitor of the PDE Type IV enzyme (for example see Semmler, J. Wachtel. H. and Endres, S., Int. J. Immunopharmac. (1993), 15(3), 409-413) or an inhibitor of proTNFα convertase (for example, see McGeehan, G. M. et al. Nature (1994) 370, 558-561). Plates were incubated for 7 hours at 37° C. (humidified incubator) after which 100 μl of the supernatant was removed from each well and stored at −70° C. (96 well round-bottom plates; Corning 25850). TNFα levels were determined in each sample using a human TNFα ELISA (see WO92/10190 and Current Protocols in Molecular Biology, vol 2 by Frederick M. Ausbel et al., John Wiley and Sons Inc.).
% inhibition=(LPS alone−medium alone)−(test concentration−medium alone)×100(LPS alone−medium alone)

T1 sequence (Q16539 whole entry): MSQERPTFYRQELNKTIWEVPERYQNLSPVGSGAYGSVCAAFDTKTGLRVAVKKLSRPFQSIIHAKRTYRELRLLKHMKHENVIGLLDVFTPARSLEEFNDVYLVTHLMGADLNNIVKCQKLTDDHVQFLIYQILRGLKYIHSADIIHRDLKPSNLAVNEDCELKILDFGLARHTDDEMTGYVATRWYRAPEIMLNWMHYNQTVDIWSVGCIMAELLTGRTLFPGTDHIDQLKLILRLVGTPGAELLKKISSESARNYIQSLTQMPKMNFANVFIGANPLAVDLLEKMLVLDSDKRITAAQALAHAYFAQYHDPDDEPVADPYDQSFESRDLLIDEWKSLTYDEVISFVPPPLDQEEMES

As for `Cc1ccc(NC(=O)c2ccnc(N3CCOCC3)c2)cc1NC(=O)c1ccc(NCCCN(C)C)nc1` [Example 22(14), 6-(3-dimethylaminopropylamino)-N-[2-methyl-5-(2-morpholinopyrid-4-ylcarbonylamino)phenyl]pyridine-3-carboxamide], the results for the IC50 in assay [1] and in assay [2] were approximately 50 nM and approximately 3000 nM, respectively.

Consider `Cc1ccc(NC(=O)c2cccc(N(C)C)c2)cc1NC(=O)c1ccc(Cl)nc1` [Example 1, 6-chloro-N-[5-(3-dimethylaminobenzamido)-2-methylphenyl]pyridine-3-carboxamide], for which the IC50 was approximately 1000 nM in assay [1] and approximately 9000 nM in assay [3] (Homo sapiens, PBMC).

For the molecule `Cc1ccc(NC(=O)c2cccc(N(C)C)c2)cc1NC(=O)c1ccc2ncsc2c1` [Example 8, Compound No. 2, N-[5-(3dimethylaminobenzamido)-2-methylphenyl]benzothiazole-6-carboxamide], the IC50 in assay [1] was approximately 100 nM; in assay [3] (Homo sapiens, PBMC) it was approximately 5000 nM.

For `N#Cc1ccc(C(=O)Nc2ccc(Cl)c(NC(=O)c3ccc4ncccc4c3)c2)cc1` [Example 10, N-[2-chloro-5-(4-cyanobenzamido)phenyl]quinoline6-carboxamide], the IC50 was approximately 50 nM in assay [1] and approximately 2000 nM in assay [3] (Homo sapiens, PBMC).

Turning to `Cc1ccc(NC(=O)c2ccnc(N3CCOCC3)c2)cc1NC(=O)c1ccc(NCCC2CCCN2C)nc1` (stereo not shown) [Example 22(18), 6-[2-(1-methylpyrrolidin-2-yl)ethylamino]-N-[2-methyl-5(2-morpholinopyrid-4-ylcarbonylamino)phenyl]pyridine-3-carboxamide], the IC50 is approximately 50 nM in assay [1]; approximately 300 nM in assay [3] (Homo sapiens, PBMC); approximately 2000 nM in assay [2].

With “N-[5-(5-isoxazolylcarbonylamino)2-methylphenyl]quinoline-6-carboxamide [Example 14]”, the IC50 in assay [1] is approximately 100 nM; in assay [3], approximately 3000 nM.
